Laboratory results from US20220118121A1, “PROSTATE SPECIFIC MEMBRANE ANTIGEN (PSMA) LIGANDS WITH IMPROVED TISSUE SPECIFICITY” (Ruprecht-Karls-Universität Heidelberg, priority 2019, published 2022).
Read-outs that look alike come from different tables or passages of the source. Where a SMILES comes first, the peptide text is derived from it. [ ]: non-standard residue; d: D form. The star is where a group is joined. DOTA = O=C(O)CN1CCN(CC(=O)O)CCN(CC(=O)*)CCN(CC(=O)O)CC1; EuK = O=C(O)CC[C@H](NC(=O)N[C@@H](CCCCN*)C(=O)O)C(=O)O; 2Nal = N[C@@H](Cc1ccc2ccccc2c1)C(=O)O; Trx = NC[C@H]1CC[C@H](C(=O)O)CC1

What was measured:
[1] = target: T1, PSMA (Homo sapiens, UniProt Q04609); experiment: competitive cell binding assay vs 68Ga-labeled PSMA-10 on LNCaP cells
T1 construct: host or cells: LNCaP cells
T1 sequence (Q04609 whole entry): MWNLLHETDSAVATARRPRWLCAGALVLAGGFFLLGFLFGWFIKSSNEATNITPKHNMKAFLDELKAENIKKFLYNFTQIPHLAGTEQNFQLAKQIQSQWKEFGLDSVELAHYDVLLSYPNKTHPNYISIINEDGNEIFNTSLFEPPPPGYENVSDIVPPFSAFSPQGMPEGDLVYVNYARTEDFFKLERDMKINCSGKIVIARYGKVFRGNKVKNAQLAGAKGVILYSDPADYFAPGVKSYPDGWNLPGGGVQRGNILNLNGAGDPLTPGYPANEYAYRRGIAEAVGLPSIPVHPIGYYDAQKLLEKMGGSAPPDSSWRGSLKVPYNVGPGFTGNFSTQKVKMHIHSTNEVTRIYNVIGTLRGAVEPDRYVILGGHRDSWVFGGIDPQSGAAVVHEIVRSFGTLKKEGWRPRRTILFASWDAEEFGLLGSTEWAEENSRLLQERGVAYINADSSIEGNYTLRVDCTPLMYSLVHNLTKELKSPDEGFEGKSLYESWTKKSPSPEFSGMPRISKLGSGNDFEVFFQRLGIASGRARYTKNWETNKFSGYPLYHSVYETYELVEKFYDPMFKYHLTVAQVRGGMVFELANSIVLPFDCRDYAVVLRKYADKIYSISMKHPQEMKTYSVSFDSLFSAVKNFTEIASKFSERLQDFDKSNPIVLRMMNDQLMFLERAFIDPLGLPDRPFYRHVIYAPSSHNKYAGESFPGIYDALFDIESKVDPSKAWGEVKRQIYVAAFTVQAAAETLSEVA
Protocol: (§1) PSMA^+ LNCaP cells (ATCC CRL-1740) were cultured in RPMI medium. Cells were grown at 37° C. in humidified air with 5% C02 and were harvested using trypsin-ethylenediaminetetraacetic acid.
(§2) The competitive cell binding assay and internalization experiments were performed according to Eder M et al. (2012), Bioconjug Chem 23(4):688.
Briefly, the cells (10^5 per well) were incubated with a 0.8 nM solution of ^68Ga-labeled radioligand [Glu-urea-Lys(Ahx)]2-HBED-CC (PSMA-10, precursor ordered from ABX, Radeberg, Germany) in the presence of 12 different concentrations of analyte (0-5000 nM, 100 μL/well). After incubation, the mixture was removed and the wells were washed 3 times with PBS using a multiscreen vacuum manifold (Millipore, Billerica, Mass.). Cell-bound radioactivity was measured using a gamma counter (Packard Cobra II, GMI, Minnesota, USA). The 50% inhibitory concentration (IC50) values were calculated by fitting the data using a nonlinear regression algorithm (GraphPad Software).

[2] = tested on: PSMA+ LNCaP cells; experiment: cell surface binding and internalization of radiolabeled compounds; format: cell-based; details: for Specific Cell Surface Binding / Specific Internalization / Cell Surface binding / Internalization: 68Ga-labeled; for Specific cell surface bound / Specific internalized: 177Lu-labeled, LNCaP cells
Protocol: as §1, §2
For internalization experiments, 10^5 cells per well were seeded in poly-L-lysine coated 24-well cell culture plates 24 h before incubation. After washing, the cells were incubated with 30 nM of the ^68Ga- or ^177Lu-radiolabeled compound for 45 min at 37° C. and at 4° C., respectively. Cellular uptake was terminated by washing 3 times with 1 mL of ice-cold PBS. To remove surface-bound radioactivity, cells were incubated twice with 0.5 mL glycine-HCl in PBS (50 mM, pH=2.8) for 5 min. The cells were washed with 1 mL of ice-cold PBS and lysed using 0.3 N NaOH (0.5 mL). The surface-bound and the internalized fractions were measured in a gamma counter. The cell uptake was calculated as percent of the initially added radioactivity bound to 10^5 cells [% ID/10^5 cells].

[3] = LNCaP cells, 0.8 nM 68Ga-PSMA-10 radioligand, read-out: Specific Binding Affinity IC50

O=C(O)CC[C@H](NC(=O)N[C@@H](CCCCNC(=O)[C@H](Cc1ccc2ccccc2c1)NC(=O)[C@H]1CC[C@H](CNC(=O)[C@H](Cc2c[nH]cn2)NC(=O)[C@H](Cc2c[nH]cn2)NC(=O)[C@H](Cc2c[nH]cn2)NC(=O)CN2CCN(CC(=O)O)CCN(CC(=O)O)CCN(CC(=O)O)CC2)CC1)C(=O)O)C(=O)O [PS-7, DOTA-(H)3-CHx-2NaI-PSMA] ({DOTA}-HHH[Trx][2Nal]-EuK)
IC50 [1, 3]: 22.7 ± 6.47 nM
Specific Cell Surface Binding [2]: 0.69 ± 0.11 % ID/10^5 cells
Specific Internalization [2]: 0.47 ± 0.11 % ID/10^5 cells
Cell Surface binding ([2]; blocked): 0.123 ± 0.015 % ID/10^5 cells
Internalization ([2]; blocked): 0.207 ± 0.021 % ID/10^5 cells
Cell Surface binding ([2]; not blocked): 0.817 ± 0.047 % ID/10^5 cells
Internalization ([2]; not blocked): 0.673 ± 0.093 % ID/10^5 cells

O=C(O)CC[C@H](NC(=O)N[C@@H](CCCCNC(=O)[C@H](Cc1ccc2ccccc2c1)NC(=O)[C@H]1CC[C@H](CNC(=O)[C@H](Cc2c[nH]cn2)NC(=O)[C@H](CCC(=O)O)NC(=O)[C@H](Cc2c[nH]cn2)NC(=O)[C@H](CCC(=O)O)NC(=O)[C@H](Cc2c[nH]cn2)NC(=O)[C@H](CCC(=O)O)NC(=O)CN2CCN(CC(=O)O)CCN(CC(=O)O)CCN(CC(=O)O)CC2)CC1)C(=O)O)C(=O)O [PS-2, DOTA-(EH)3-CHx-2NaI-PSMA] ({DOTA}-EHEHEH[Trx][2Nal]-EuK)
IC50 [1, 3]: 37 ± 11.4 nM
Specific Cell Surface Binding [2]: 1.27 ± 0.15 % ID/10^5 cells
Specific Internalization [2]: 0.61 ± 0.15 % ID/10^5 cells
Cell Surface binding ([2]; blocked): 0.060 ± 0.017 % ID/10^5 cells
Internalization ([2]; blocked): 0.187 ± 0.032 % ID/10^5 cells
Cell Surface binding ([2]; not blocked): 1.333 ± 0.127 % ID/10^5 cells
Internalization ([2]; not blocked): 0.797 ± 0.122 % ID/10^5 cells
Specific cell surface bound [2]: 9.55 ± 1.61 % ID/10^5 cells
Specific internalized [2]: 6.00 ± 0.71 % ID/10^5 cells

O=C(O)CC[C@H](NC(=O)N[C@@H](CCCCNC(=O)[C@H](Cc1c[nH]cn1)NC(=O)[C@H](Cc1c[nH]cn1)NC(=O)[C@H](Cc1c[nH]cn1)NC(=O)[C@H](Cc1ccc2ccccc2c1)NC(=O)[C@H]1CC[C@H](CNC(=O)CN2CCN(CC(=O)O)CCN(CC(=O)O)CCN(CC(=O)O)CC2)CC1)C(=O)O)C(=O)O [PS-8, DOTA-CHx-2NaI-(H)3-PSMA] ({DOTA-Trx}-[2Nal]HHH-EuK)
IC50 [1, 3]: 78.6 ± 44.1 nM
Specific Cell Surface Binding [2]: 0.90 ± 0.03 % ID/10^5 cells
Specific Internalization [2]: 0.51 ± 0.05 % ID/10^5 cells
Cell Surface binding ([2]; blocked): 0.038 ± 0.010 % ID/10^5 cells
Internalization ([2]; blocked): 0.093 ± 0.033 % ID/10^5 cells
Cell Surface binding ([2]; not blocked): 0.945 ± 0.030 % ID/10^5 cells
Internalization ([2]; not blocked): 0.600 ± 0.066 % ID/10^5 cells

O=C(O)CC[C@H](NC(=O)N[C@@H](CCCCNC(=O)[C@H](Cc1ccc2ccccc2c1)NC(=O)[C@H]1CC[C@H](CNC(=O)[C@H](CCC(=O)O)NC(=O)[C@H](CCC(=O)O)NC(=O)[C@H](CCC(=O)O)NC(=O)CN2CCN(CC(=O)O)CCN(CC(=O)O)CCN(CC(=O)O)CC2)CC1)C(=O)O)C(=O)O [PS-5, DOTA-(E)3-CHx-2NaI-PSMA] ({DOTA}-EEE[Trx][2Nal]-EuK)
IC50 [1]: 10.4 ± 2.94 nM
Specific Cell Surface Binding [2]: 0.94 ± 0.13 % ID/10^5 cells
Specific Internalization [2]: 0.63 ± 0.28 % ID/10^5 cells
Cell Surface binding ([2]; blocked): 0.055 ± 0.013 % ID/10^5 cells
Internalization ([2]; blocked): 0.095 ± 0.026 % ID/10^5 cells
Cell Surface binding ([2]; not blocked): 1.003 ± 0.127 % ID/10^5 cells
Internalization ([2]; not blocked): 0.725 ± 0.269 % ID/10^5 cells

O=C(O)CC[C@H](NC(=O)N[C@@H](CCCCNC(=O)[C@H](Cc1ccc2ccccc2c1)NC(=O)[C@H](CCC(=O)O)NC(=O)[C@H](CCC(=O)O)NC(=O)[C@H](CCC(=O)O)NC(=O)[C@H]1CC[C@H](CNC(=O)CN2CCN(CC(=O)O)CCN(CC(=O)O)CCN(CC(=O)O)CC2)CC1)C(=O)O)C(=O)O [PS-9, DOTA-CHx-(E)3-2NaI-PSMA] ({DOTA-Trx}-EEE[2Nal]-EuK)
IC50 [1, 3]: 23.4 ± 9.7 nM
Specific Cell Surface Binding [2]: 0.59 ± 0.09 % ID/10^5 cells
Specific Internalization [2]: 0.27 ± 0.07 % ID/10^5 cells
Cell Surface binding ([2]; blocked): 0.060 ± 0.021 % ID/10^5 cells
Internalization ([2]; blocked): 0.138 ± 0.046 % ID/10^5 cells
Cell Surface binding ([2]; not blocked): 0.650 ± 0.083 % ID/10^5 cells
Internalization ([2]; not blocked): 0.410 ± 0.090 % ID/10^5 cells

O=C(O)CC[C@H](NC(=O)N[C@@H](CCCCNC(=O)[C@H](Cc1ccc2ccccc2c1)NC(=O)[C@H]1CC[C@H](CNC(=O)[C@H](CCC(=O)O)NC(=O)[C@H](Cc2c[nH]cn2)NC(=O)[C@H](CCC(=O)O)NC(=O)[C@H](Cc2c[nH]cn2)NC(=O)[C@H](CCC(=O)O)NC(=O)[C@H](Cc2c[nH]cn2)NC(=O)CN2CCN(CC(=O)O)CCN(CC(=O)O)CCN(CC(=O)O)CC2)CC1)C(=O)O)C(=O)O [PS-4.2, DOTA-(HE)3-CHx-2NaI-PSMA] ({DOTA}-HEHEHE[Trx][2Nal]-EuK)
IC50 [1, 3]: 27.9 ± 6.93 nM
Specific Cell Surface Binding [2]: 1.35 ± 0.28 % ID/10^5 cells
Specific Internalization [2]: 0.71 ± 0.28 % ID/10^5 cells
Cell Surface binding ([2]; blocked): 0.080 ± 0.010 % ID/10^5 cells
Internalization ([2]; blocked): 0.113 ± 0.023 % ID/10^5 cells
Cell Surface binding ([2]; not blocked): 1.437 ± 0.138 % ID/10^5 cells
Internalization ([2]; not blocked): 0.676 ± 0.070 % ID/10^5 cells

O=C(O)CC[C@H](NC(=O)N[C@@H](CCCCNC(=O)[C@H](CCC(=O)O)NC(=O)[C@H](CCC(=O)O)NC(=O)[C@H](CCC(=O)O)NC(=O)[C@H](Cc1ccc2ccccc2c1)NC(=O)[C@H]1CC[C@H](CNC(=O)CN2CCN(CC(=O)O)CCN(CC(=O)O)CCN(CC(=O)O)CC2)CC1)C(=O)O)C(=O)O [PS-6, DOTA-CHx-2NaI-(E)3-PSMA] ({DOTA-Trx}-[2Nal]EEE-EuK)
IC50 [1, 3]: 28.6 ± 8.42 nM
Specific Cell Surface Binding [2]: 0.71 ± 0.12 % ID/10^5 cells
Specific Internalization [2]: 0.45 ± 0.12 % ID/10^5 cells
Cell Surface binding ([2]; blocked): 0.050 ± 0.020 % ID/10^5 cells
Internalization ([2]; blocked): 0.156 ± 0.023 % ID/10^5 cells
Cell Surface binding ([2]; not blocked): 0.767 ± 0.156 % ID/10^5 cells
Internalization ([2]; not blocked): 0.607 ± 0.136 % ID/10^5 cells

O=C(O)CCC(NC(=O)NC(CCCCNC(=O)C(Cc1ccc2ccccc2c1)NC(=O)C1CCC(CNC(=O)CN2CCN(CC(=O)O)CCN(CC(=O)O)CCN(CC(=O)O)CC2)CC1)C(=O)O)C(=O)O (stereo not shown) [PSMA-617, 2-[3-(1-Carboxy-5-{3-naphthalen-2-yl-2-[(4-{[2-(4,7,10-tris-carboxymethyl-1,4,7,10-tetraaza-cyclododec-1-yl)-acetylamino]-methyl}-cyclohexanecarbonyl)-amino]-propionylamino}-pentyl)-ureido]-pentanedioic acid, reference compound]
IC50 [1, 3]: 21.8 ± 3.13 nM
Specific Cell Surface Binding [2]: 0.72 ± 0.06 % ID/10^5 cells
Specific Internalization [2]: 0.39 ± 0.06 % ID/10^5 cells
Cell Surface binding ([2]; blocked): 0.063 ± 0.014 % ID/10^5 cells
Internalization ([2]; blocked): 0.117 ± 0.032 % ID/10^5 cells
Cell Surface binding ([2]; not blocked): 0.792 ± 0.134 % ID/10^5 cells
Internalization ([2]; not blocked): 0.504 ± 0.051 % ID/10^5 cells
Specific cell surface bound [2]: 4.36 ± 1.33 % ID/10^5 cells
Specific internalized [2]: 2.94 ± 0.35 % ID/10^5 cells

O=C(O)CC[C@H](NC(=O)N[C@@H](CCCCNC(=O)[C@H](Cc1ccc2ccccc2c1)NC(=O)[C@H]1CC[C@H](CNC(=O)[C@H](Cc2c[nH]cn2)NC(=O)[C@H](CCC(=O)O)NC(=O)[C@H](Cc2c[nH]cn2)NC(=O)[C@H](CCC(=O)O)NC(=O)[C@H](Cc2c[nH]cn2)NC(=O)[C@H](CCC(=O)O)NC(=O)[C@H](Cc2c[nH]cn2)NC(=O)[C@H](CCC(=O)O)NC(=O)CN2CCN(CC(=O)O)CCN(CC(=O)O)CCN(CC(=O)O)CC2)CC1)C(=O)O)C(=O)O [PS-4, DOTA-(EH)4-CHx-2NaI-PSMA] ({DOTA}-EHEHEHEH[Trx][2Nal]-EuK)
IC50 [1, 3]: 46.7 ± 37.3 nM
Specific Cell Surface Binding [2]: 1.33 ± 0.09 % ID/10^5 cells
Specific Internalization [2]: 0.52 ± 0.04 % ID/10^5 cells
Cell Surface binding ([2]; blocked): 0.083 ± 0.029 % ID/10^5 cells
Internalization ([2]; blocked): 0.151 ± 0.048 % ID/10^5 cells
Cell Surface binding ([2]; not blocked): 1.420 ± 0.113 % ID/10^5 cells
Internalization ([2]; not blocked): 0.676 ± 0.070 % ID/10^5 cells
